Consider 6 compounds from ChEMBL document CHEMBL5214911, “Chemical update on the potential for serotonin 5-HT6 and 5-HT7 receptor agents in the treatment of Alzheimer's disease” (Bioorg Med Chem Lett, 2021).

Test [1] addresses 5-hydroxytryptamine receptor 7 (Homo sapiens, UniProt P34969). As to the kind of experiment: Binding affinity to 5-HT7R (unknown origin) assessed as inhibition constant.
The target in test [2] is T1, 5-hydroxytryptamine receptor 6 (Homo sapiens, UniProt P50406). As to the kind of experiment: Binding affinity to 5-HT6R (unknown origin) assessed as inhibition constant.
Test [3] concerns the target T2, 5-hydroxytryptamine receptor 1A (Homo sapiens, UniProt P08908).
T2 sequence (P08908 whole entry): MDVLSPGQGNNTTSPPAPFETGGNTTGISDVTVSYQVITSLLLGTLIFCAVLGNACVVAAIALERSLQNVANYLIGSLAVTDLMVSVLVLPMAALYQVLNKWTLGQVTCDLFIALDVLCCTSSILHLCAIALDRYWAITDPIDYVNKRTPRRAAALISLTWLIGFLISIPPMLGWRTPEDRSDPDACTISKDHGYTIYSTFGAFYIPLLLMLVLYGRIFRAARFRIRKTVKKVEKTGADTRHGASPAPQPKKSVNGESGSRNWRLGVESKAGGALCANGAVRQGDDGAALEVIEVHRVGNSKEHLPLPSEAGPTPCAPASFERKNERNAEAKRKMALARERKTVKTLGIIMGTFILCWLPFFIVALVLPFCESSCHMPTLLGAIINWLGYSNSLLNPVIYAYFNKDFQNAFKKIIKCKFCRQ
As to the kind of experiment: Binding affinity to 5-HT1A (unknown origin) assessed as inhibition constant.

The target of test [4] is T3, Alpha-2C adrenergic receptor (Homo sapiens, UniProt P18825).
T3 sequence (P18825 whole entry): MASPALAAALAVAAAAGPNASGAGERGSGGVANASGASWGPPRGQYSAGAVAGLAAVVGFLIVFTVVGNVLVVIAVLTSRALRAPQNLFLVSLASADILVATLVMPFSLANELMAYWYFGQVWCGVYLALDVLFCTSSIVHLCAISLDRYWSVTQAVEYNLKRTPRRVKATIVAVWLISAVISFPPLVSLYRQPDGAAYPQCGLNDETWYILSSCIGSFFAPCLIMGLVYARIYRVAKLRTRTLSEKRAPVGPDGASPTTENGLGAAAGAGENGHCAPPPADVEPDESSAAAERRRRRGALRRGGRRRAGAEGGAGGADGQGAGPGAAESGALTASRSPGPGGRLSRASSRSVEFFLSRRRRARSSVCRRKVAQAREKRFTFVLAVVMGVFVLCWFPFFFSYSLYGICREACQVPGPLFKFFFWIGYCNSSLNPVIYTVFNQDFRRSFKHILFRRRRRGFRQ
As to the kind of experiment: Binding affinity to alpha2C AR (unknown origin) assessed as inhibition constant.

In test [5] the target is T1, 5-hydroxytryptamine receptor 6. As to the kind of experiment: Displacement of [125I]cAMP-tracer from 5-HT6R in human HeLa cells assessed as measuring cAMP level incubated for 15 mins by radioimmunoassay. Type of test: cell-based. In general terms: Loss of bound radioactivity is the signal in a displacement assay; it reports binding, not function.

T1 sequence (P50406 whole entry): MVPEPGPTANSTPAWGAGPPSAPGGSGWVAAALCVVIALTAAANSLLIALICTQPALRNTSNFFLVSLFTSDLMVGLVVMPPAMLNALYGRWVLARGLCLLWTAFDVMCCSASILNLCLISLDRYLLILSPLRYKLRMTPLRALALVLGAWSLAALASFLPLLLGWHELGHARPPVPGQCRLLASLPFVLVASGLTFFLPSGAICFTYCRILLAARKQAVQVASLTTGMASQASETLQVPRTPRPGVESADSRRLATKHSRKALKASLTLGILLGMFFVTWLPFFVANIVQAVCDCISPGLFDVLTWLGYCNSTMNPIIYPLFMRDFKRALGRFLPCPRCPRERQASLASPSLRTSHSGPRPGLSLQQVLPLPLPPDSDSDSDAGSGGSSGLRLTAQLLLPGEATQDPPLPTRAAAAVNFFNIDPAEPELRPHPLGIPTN
5-hydroxytryptamine receptor 7, sequence (P34969 whole entry): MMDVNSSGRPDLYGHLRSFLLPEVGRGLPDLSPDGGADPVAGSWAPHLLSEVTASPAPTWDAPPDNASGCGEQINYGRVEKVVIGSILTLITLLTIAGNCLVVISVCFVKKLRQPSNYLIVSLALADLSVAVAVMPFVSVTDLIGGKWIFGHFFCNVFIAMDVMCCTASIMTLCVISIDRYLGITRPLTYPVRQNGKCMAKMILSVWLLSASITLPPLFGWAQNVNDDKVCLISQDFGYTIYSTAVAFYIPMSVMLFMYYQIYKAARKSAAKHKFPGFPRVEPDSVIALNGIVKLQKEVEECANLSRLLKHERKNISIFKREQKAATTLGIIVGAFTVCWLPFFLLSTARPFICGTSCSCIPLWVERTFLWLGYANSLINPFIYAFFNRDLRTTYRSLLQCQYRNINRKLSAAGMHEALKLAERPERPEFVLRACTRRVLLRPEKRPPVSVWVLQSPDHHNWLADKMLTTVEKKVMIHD

On to `CCOCC(Oc1c(C)cccc1Cl)N1CCN(c2ccccc2OC)CC1` (stereo not given), for which the inhibition constant (Ki) (in general, the dissociation constant of the complex between target and ligand, obtained from inhibition or displacement) in test [1] is 34 nM; in test [2], 9620 nM; in test [3], under 1 nM.
As to `O=C1C2C3CCC(C3)C2C(=O)N1CC1CCCCC1CN1CCN(c2nsc3ccccc23)CC1` (stereo not given), the Ki in test [4] came to 11 nM.
Consider `CCOCC(Oc1c(C)cccc1C)N1CCN(c2ccccc2OC)CC1` (stereo not given), for which the Ki in test [1] is 156 nM; in test [2] it was 9970 nM; in test [3] it was 41 nM.
Take `COc1cc(NS(=O)(=O)c2ccc(OC)c(N3CCNCC3)c2)c(Cl)cc1Cl`: the Ki in test [5] is 0.98 nM.
In the case of `Clc1ccc(-c2nn(Cc3ccccc3)c3c2CCNCC3)cc1` [JNJ-18038683 FREE BASE], in test [1], the Ki stood at 3 nM.
On to `CCN1CCCC1CNC(=O)c1cc(S(N)(=O)=O)ccc1OC` (stereo not given) [SULPIRIDE], for which, in test [1], the Ki was over 3000 nM.
